# Marks after values point to notes of the source that are not given here.
# How the values were obtained:
# [1] = Promoting excretion of U(VI) in mice by injected ligand; format: in vivo
# Source text: Animal studies were completed using methods detailed in Radiation Protection Dosimetry, in press, P. W. Durbin et al., "In Vivo Chelation of Am(III), Pu(IV), Np(V) and U(VI) in Mice by TREN-(Me-3,2-HOPO)"; Radiation Protection Dosimetry, 17, No. 1, 1989, p. 351, P. W. Durbin et al., "Removal of ^238Pu(IV) from Mice by Polycatechoylate, -Hydroxamate or -Hydroxypyridinonate Ligands"; Radiation Research, 99, 1984, p. 85, P. W. Durbin et al., "Specific Sequestering Agents for the Actinides ..."; Radiation Research, 99, 1984, p. 106, P. W. Durbin et al., "Removal of Pu and Am from Beagles and Mice ..."; Radiation Research, 81, 1980, p. 170, R. D. Lloyd et al., and P. W. Durbin et al., "Specific Sequestering Agents for the Actinides ...". The foregoing articles are hereby incorporated by reference.
# The ^232U was obtained from the Isotope Products Laboratory, Burbank, CA, and ^234,235U was obtained as U metal from long-held LBL storage. The two U sources were combined and dissolved in 6N HNO3, dried, and redissolved in 0.1 N HCl. The daughter radioactivities were removed by elution from a Dowex-50X4 column (22 cm length, 0.7 cm diameter, 1.5 mL·min^-1 flow rate) with 3.2N HCl. The U fractions (previously identified by a trial run with ^234,235U alone) were combined, dried, and redissolved in 0.14M NaCl at pH 5.5.
# One of the comparative chelating agents TREN-Me-3,2-HOPO, was also tested for effectiveness in promoting excretion of ^241Am(III), ^237Np(V), and ^232U(VI) by injection into mice, as follows: Mice, in groups of five, each received an intravenous injection of (a) 1100 Bq of ^241AM(III) in 0.2 mL of citrate buffer, (b) 150 Bq of ^232UO2Cl2 plus 3.6 mg of ^235UO2Cl2 in 0.2 mL of saline, or (c) 200 Bq of ^237NpO2Cl (7.5 mg of ^237NpO2Cl) in 0.2 mL of saline. Three to five minutes later, […] of TREN-Me-3,2-HOPO was injected intraperitoneally in 0.5 mL of saline. The mice were killed 24 hours after the actinide injection, frozen, and dissected after partial thawing. The skeleton, soft tissues, and separated excreta were radioanalyzed by counting the ^241Am gamma rays, or the alpha particles emitted by ^237Np or ^232U (and its ingrowing daughters). Removal of those actinides from mice by injected TREN-Me-3,2-HOPO is summarized in Table 5, which also includes data for mice similarly treated with CaNa3-DTPA and for actinide-injected controls. […] The structure of Am(III)-TREN-Me-3,2-HOPO is considered to resemble that of the Gd(III) complexes (see example 20). Complexation of the fraction of Np(V) that is reduced in vivo to Np(IV) is considered to resemble that of Pu(IV). Complexation of U(VI) is considered to take place through binding to UO2^2+.
# [2] = In vivo acute toxicity test of injected ligands in mice
# Protocol: The test of acute toxicity of novel and comparative ligands was carried out as follows. Groups of five mice were each given a single i.p. injection of […] of ligand and a day for 10 days or given two i.p. injections of […] in 8 hours. The ligand was dissolved in 0.5 to 1.0 ml of saline at pH 7 to 8. After a period of observation, the mice were killed; selected tissues were removed and fixed for histopathological examination; and unusual findings at autopsy were recorded. […]
# [3] = U(VI), ligand 30 mmol.kg-1 i.p at 3 to 5 min after actinide i.v., kill at 24 h
# [4] = U(VI), ligand 30 mmol.kg-1 i.p at 3 to 5 min after actinide i.v., kill at 24 h, pooled
# [5] = protocol I, 100 µmol kg^-1 x 10 daily i.p., study length 11 d
# [6] = protocol I, 100 µmol kg^-1 x 10 daily i.p., study length 21 d
# [7] = protocol II, 500 µmol kg^-1 x 2 in 8 h, study length 8 d
smiles,measurement,setting,value
"Cn1ccc(C(=O)NCCN(CCNC(=O)c2ccn(C)c(=O)c2O)CCNC(=O)c2ccn(C)c(=O)c2O)c(O)c1=O [TREN-Me-3,2-HOPO, N,N,N,-Tris[(3-hydroxy-1-methyl-2-oxo-1,2-dihydropyridin-4-yl)carboxamidoethyl]-amine]","percent of injected actinide ± SD at 24 h, tissues: kidneys",[1]; [3],"9.4 ± 6.0^d,e percent of injected actinide"
same,"percent of injected actinide ± SD at 24 h, tissues: skeleton",[1]; [3],16 ± 2.4% of injected actinide
same,"percent of injected actinide ± SD at 24 h, tissues: soft tissue",[1]; [3],1.6 ± 0.3% of injected actinide
same,"percent of injected actinide ± SD at 24 h, whole body",[1]; [3],"27 ± 8.5^d,e percent of injected actinide"
same,"percent of injected actinide ± SD at 24 h, tissues: liver","[1]; U(VI), ligand 30 mmol.kg-1 i.p at 3 to 5 min after actinide i.v., kill at 24 h, livers of some groups pooled",0.6 ± 0.3% of injected actinide
same,"percent of injected actinide at 24 h, excreta: feces and GI contents",[1]; [4],2.3% of injected actinide
same,"percent of injected actinide at 24 h, excreta: urine 0-24 h",[1]; [4],70% of injected actinide
same,U burden in the kidneys compared with controls (in words),[1]; intraperitoneally three to five minutes after actinide,more than one-half of the U burden in the kidneys was removed
same,toxicity (in words),[2]; even at the relatively high dosage of 2x500 µmol/kg in 8 hours,low toxicity
same,no. of survivors,[2]; [5],5
same,percent control mean + SD: body weight,[2]; [5],102 ± 1 percent control
same,percent control mean + SD: plasma urea N,[2]; [5],112 ± 10 percent control
same,no. of survivors,[2]; [6],5
same,percent control mean + SD: body weight,[2]; [6],106 ± 4 percent control
same,percent control mean + SD: plasma urea N,[2]; [6],120 ± 9 percent control
same,no. of survivors,[2]; [7],19
same,percent control mean + SD: body weight,[2]; [7],101 ± 4 percent control
same,percent control mean + SD: plasma urea N,[2]; [7],119 ± 15 percent control
